This is an account of results in ChEMBL document CHEMBL5360657, “Discovery of the TLR7/8 Antagonist MHV370 for Treatment of Systemic Autoimmune Diseases” (ACS Med Chem Lett, 2023).

For orientation: IC50 means the point on the concentration scale where inhibition reaches its midpoint. For orientation: inhibition in vivo means how much of the control response was suppressed. What is called solubility is the dissolved amount per volume that the medium holds. A low value points to a poorly soluble substance. In general, AUC refers to the area under the concentration-time curve, a measure of exposure. A lower AUC goes with less exposure. As usually defined, the Cmax is the highest concentration seen after dosing. One may read the bioavailability as dose-corrected exposure relative to a reference, in per cent.

For series [1], the target named is Toll-like receptor 4 (Homo sapiens, UniProt O00206). Kind of series: Antagonist activity at TLR4 in human Whole blood cell assessed as reduction in IL-6 level measured after 30 mins. The series is classed as tissue-based.
Chain of Toll-like receptor 4 (Homo sapiens, UniProt O00206) (O00206 whole entry): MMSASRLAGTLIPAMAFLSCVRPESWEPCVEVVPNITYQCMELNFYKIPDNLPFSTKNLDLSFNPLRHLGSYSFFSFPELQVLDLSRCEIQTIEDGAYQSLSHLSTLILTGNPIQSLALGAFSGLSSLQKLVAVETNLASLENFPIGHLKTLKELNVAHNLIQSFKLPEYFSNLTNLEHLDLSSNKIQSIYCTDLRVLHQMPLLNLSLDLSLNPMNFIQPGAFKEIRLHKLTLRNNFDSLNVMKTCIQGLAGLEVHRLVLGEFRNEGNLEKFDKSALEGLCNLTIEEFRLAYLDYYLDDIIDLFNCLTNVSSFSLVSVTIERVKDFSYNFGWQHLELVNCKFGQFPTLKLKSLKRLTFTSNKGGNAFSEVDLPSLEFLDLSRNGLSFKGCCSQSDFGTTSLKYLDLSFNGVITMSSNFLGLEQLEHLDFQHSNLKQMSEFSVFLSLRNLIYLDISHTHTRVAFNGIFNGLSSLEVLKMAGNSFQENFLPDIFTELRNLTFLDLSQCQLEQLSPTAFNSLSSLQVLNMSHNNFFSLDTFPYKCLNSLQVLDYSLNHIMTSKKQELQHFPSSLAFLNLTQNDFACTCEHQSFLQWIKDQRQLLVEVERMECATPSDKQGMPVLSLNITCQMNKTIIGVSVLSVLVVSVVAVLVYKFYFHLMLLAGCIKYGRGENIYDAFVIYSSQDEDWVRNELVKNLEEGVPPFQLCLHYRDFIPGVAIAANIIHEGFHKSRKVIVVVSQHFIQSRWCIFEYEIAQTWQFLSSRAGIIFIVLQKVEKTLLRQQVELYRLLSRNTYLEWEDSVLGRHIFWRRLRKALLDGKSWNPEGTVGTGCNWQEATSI
In series [2] the target is T1, Toll-like receptor 4 (Mus musculus, UniProt Q9QUK6).
T1 sequence (Q9QUK6 whole entry): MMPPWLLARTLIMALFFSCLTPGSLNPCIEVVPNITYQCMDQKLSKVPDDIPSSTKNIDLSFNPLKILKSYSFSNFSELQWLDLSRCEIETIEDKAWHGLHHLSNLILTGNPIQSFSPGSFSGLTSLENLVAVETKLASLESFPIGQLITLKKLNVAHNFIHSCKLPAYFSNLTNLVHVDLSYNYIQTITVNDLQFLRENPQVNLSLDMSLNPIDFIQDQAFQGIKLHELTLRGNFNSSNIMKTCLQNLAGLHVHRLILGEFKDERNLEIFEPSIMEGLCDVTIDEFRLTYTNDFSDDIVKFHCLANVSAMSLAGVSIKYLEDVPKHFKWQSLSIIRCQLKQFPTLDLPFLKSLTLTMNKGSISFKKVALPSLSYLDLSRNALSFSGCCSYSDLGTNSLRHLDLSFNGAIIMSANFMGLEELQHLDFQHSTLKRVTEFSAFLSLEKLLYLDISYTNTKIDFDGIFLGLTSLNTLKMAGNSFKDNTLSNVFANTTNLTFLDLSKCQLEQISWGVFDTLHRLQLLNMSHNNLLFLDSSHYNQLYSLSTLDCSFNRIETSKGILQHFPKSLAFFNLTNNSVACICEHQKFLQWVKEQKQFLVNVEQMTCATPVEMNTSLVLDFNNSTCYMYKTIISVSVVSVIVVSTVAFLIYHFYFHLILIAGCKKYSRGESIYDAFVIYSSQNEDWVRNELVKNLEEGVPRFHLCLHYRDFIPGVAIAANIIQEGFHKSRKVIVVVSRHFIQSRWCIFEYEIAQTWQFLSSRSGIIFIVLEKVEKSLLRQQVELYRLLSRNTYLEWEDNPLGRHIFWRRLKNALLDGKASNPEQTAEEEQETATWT
The experiment in a line: Antagonist activity at TLR4 in mouse Whole blood cell assessed as reduction in IL-6 level measured after 20 hrs by HTRF method. The series is classed as tissue-based.

Series [3] has as its target Toll-like receptor 7 (Mus musculus) (UniProt P58681). The experiment in a line: In vivo antagonist activity against TLR7 in mouse assessed as inhibition of TNF level at 10 mg/kg, po measured after 2 hrs by LC-MS/MS analysis relative to control.
For series [4] the target is unchanged. The experiment in a line: In vivo antagonist activity against TLR7 in mouse assessed as suppression of IFN alpha level at 10 mg/kg, po measured at 3 hrs by LC-MS/MS analysis.
Series [5] shares this target. The experiment in a line: In vivo antagonist activity against TLR7 in mouse assessed as inhibition of IFN alpha level at 10 mg/kg, po measured after 2 hrs by LC-MS/MS analysis relative to control.
For series [6] the target is unchanged. Kind of series: In vivo antagonist activity against TLR7 in po dosed mouse assessed as suppression of TNF level measured at 3 hrs by LC-MS/MS analysis. The conditions noted are these: dose 1-30 mg/kg.
A further series concerns the target T2, Toll-like receptor 7 (Mus musculus, UniProt P58681).
T2 sequence (P58681 whole entry): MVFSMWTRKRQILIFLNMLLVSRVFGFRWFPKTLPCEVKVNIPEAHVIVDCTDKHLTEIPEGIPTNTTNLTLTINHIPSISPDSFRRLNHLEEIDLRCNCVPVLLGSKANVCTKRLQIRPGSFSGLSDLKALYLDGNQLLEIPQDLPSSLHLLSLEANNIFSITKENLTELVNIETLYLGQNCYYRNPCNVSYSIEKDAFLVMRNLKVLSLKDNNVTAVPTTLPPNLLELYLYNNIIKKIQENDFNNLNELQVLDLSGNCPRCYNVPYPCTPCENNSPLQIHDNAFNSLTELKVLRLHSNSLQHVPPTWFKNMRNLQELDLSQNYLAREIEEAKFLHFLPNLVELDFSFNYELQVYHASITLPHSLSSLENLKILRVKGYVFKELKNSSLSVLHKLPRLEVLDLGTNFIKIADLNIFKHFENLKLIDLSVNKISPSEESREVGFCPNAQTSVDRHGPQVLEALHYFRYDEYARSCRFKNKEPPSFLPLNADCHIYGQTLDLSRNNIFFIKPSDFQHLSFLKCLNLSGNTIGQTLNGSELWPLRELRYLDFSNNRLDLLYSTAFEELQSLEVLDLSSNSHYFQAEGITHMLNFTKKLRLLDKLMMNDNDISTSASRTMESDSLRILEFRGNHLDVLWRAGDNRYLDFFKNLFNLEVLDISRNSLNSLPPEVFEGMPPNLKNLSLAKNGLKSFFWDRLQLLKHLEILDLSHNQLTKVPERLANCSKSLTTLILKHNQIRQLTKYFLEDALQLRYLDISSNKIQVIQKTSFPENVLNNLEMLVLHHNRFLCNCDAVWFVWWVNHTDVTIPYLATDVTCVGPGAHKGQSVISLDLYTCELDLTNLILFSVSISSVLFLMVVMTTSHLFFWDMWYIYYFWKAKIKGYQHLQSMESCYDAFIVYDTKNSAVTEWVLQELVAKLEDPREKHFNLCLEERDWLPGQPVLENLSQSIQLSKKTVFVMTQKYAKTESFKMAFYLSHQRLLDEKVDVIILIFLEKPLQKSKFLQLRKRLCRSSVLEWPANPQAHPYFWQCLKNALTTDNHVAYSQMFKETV
The experiment in a line: Antagonist activity at TLR7 in mouse Whole blood cell assessed as reduction in IFN-alpha level measured after 20 hrs by AlphaLISA method. The series is classed as tissue-based.

In series [7] the target is Toll-like receptor 7 (Mus musculus) (UniProt P58681). The experiment in a line: In vivo antagonist activity against TLR7 in mouse assessed as suppression of IFN alpha level at 3 mg/kg, po measured at 3 hrs by LC-MS/MS analysis.
The target of series [8] is T1, Toll-like receptor 4. Kind of series: Antagonist activity at TLR4 in mouse Splenocyte assessed as reduction IL-6 level measured after 20 hrs by Spectramax M5 method. Type of series: cell-based.
Series [9] is described as follows: Solubility of the compound. Type of series: physicochemical.
Series [10] in a line: AUC in mouse at 3 mg/kg, iv. Set-up: dose 3 mg/kg, route iv. The conditions noted are these: in vivo. Type of series: ADME, organism-based.
Series [11] can be described thus: Cmax in mouse at 3 mg/kg, iv. Type of series: ADME, organism-based. Set-up: dose 3 mg/kg, route iv. Conditions: in vivo.
A short description of series [12]: Half life in mouse at 3 mg/kg, iv. The conditions noted are these: in vivo. Type of series: ADME, organism-based.
Series [13] in a line: Tlast in mouse at 20 mg/kg, po. Type of series: ADME, organism-based. The conditions noted are these: in vivo.
Series [14] can be described thus: Oral bioavailability in mouse at 20 mg/kg. Type of series: ADME, organism-based. Conditions: in vivo.
Another series deals with Cytochrome P450 2D6 (Homo sapiens, UniProt P10635). The experiment in a line: Inhibition of CYP2D6 (unknown origin). The series is classed as ADME.
Chain of Cytochrome P450 2D6 (P10635 whole entry): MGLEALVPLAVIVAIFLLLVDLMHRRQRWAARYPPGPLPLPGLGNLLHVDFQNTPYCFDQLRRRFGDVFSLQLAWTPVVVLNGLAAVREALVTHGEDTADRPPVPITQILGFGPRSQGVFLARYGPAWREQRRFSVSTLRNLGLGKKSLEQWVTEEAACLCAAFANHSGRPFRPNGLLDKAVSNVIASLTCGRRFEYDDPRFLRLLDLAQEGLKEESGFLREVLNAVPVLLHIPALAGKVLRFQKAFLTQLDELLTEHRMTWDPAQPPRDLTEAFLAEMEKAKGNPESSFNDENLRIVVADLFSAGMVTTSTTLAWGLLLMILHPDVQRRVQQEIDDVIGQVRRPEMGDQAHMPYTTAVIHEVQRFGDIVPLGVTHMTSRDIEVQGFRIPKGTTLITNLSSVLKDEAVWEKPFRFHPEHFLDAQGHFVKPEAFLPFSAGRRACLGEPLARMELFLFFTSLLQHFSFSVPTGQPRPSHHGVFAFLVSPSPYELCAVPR

With `Cc1cc(N2CCc3c(c(C)nn3CC34CCC(NC(=O)[C@@H]5COCCN5)(CC3)CC4)C2)c2cnn(C)c2n1` [MHV-370], the IC50 was more than 10 µM at Toll-like receptor 4 [1], more than 10 µM at Toll-like receptor 4 [2], 0.051 µM on Toll-like receptor 7 and more than 10 µM on Toll-like receptor 4 [8]. Further, the inhibition in vivo at 10 mg/kg in [3] and in series [5] was approximately 100% in each case. The Activity in [4] was 550 ng/mL; in series [6] it was “Dose-Dependent Effect”; in series [7] it was 141 ng/mL.
On to `Cc1cc(N2CCc3c(c(C)nn3CC34CCC(N)(CC3)CC4)C2)c2cnn(C)c2n1`, for which the solubility in series [9] was more than 175 µM. In addition, in [10], the AUC came to 5.005 µM·h. The compound further returned a Cmax in series [11] of 321 nM. The compound also displayed a t1/2 in [12] of 2.1 h. The same compound returned a Tlast in series [13] of 7 h. Besides, the bioavailability in series [14] is 4%. The IC50 against Cytochrome P450 2D6 was more than 25 µM.
